From patent US8962674B2 (Tokyo Institute of Technology, priority 2006, dated 2015)

Biological target: recombinant human β-secretase (rhBACE-1) (Homo sapiens (Human), UniProt P56817)
Test: β-Secretase enzyme inhibition assay (Test Example 1)
Type: biochemical
Settings: compound solution 3 μM (FIG. 1 legend: 1.0 μM), 37° C., 2 hr, fluorescent substrate peptide
Procedure: β-Secretase Enzyme Inhibition Assay
Compounds were dissolved in dimethylsulfoxide (DMSO), and further diluted in 0.1 M sodium acetate buffer (with 150 mM sodium chloride, pH 4.5). The solution with no compound was used as a negative control. Then, 100 μL of these solutions (compound concentration: 3 μM), 1 μL of recombinant human β-secretase (rhBACE-1, R&D), and 5 μL of the fluorescent substrate peptide were mixed in a black 96-well plate (Nunc). After mixtures were incubated in the dark at 37° C. for 2 hr, the fluorescence intensities of the mixtures were measured by fluorescence microplate reader (Wallac) at 540 nm for excitation and at 590 nm for emission. The inhibition ratio was calculated as a percentage of the negative control. The sequence of the peptide was […] and labeled with fluorescent donor (Cy3) at Ser-1 and with quencher (Cy5Q) at Lys-9, respectively (Invitrogen).

recombinant human β-secretase (rhBACE-1), sequence (P56817 46-501): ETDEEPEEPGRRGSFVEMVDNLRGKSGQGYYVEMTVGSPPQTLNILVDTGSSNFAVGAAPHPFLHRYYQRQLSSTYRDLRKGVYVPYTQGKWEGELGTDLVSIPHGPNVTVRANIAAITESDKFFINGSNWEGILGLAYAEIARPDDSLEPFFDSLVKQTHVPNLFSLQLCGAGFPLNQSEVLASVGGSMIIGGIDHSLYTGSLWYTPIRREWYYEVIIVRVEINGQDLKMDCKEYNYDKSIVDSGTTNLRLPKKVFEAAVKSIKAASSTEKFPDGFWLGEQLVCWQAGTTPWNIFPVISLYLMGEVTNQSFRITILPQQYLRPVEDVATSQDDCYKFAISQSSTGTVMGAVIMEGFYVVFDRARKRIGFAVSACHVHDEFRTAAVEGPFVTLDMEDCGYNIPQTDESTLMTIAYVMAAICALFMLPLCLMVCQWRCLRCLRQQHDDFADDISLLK

| inhibition of BACE-1 enzyme activity (inhibitory activities (%) shown in FIG. 1) | SMILES |
| --- | --- |
| strongly inhibited | O=C(/C=C/c1ccc(O)cc1)CC(=O)/C=C/c1ccc(O)c(F)c1 [CU030, (1E,6E)-1-(3-fluoro-4-hydroxyphenyl)-7-(4-hydroxyphenyl)hepta-1,6-diene-3,5-dione] |
| strongly inhibited | O=C(/C=C/c1ccc(O)cc1)CC(=O)/C=C/c1cccc2ccccc12 [CU112, (1E,6E)-1-(4-hydroxyphenyl)-7-(naphthalen-1-yl)hepta-1,6-diene-3,5-dione] |

Further lines, the compound ahead of its results:

| SMILES | inhibition of BACE-1 enzyme activity (inhibitory activities (%) shown in FIG. 1) |
| --- | --- |
| COc1cc(/C=C/C(=O)CC(=O)/C=C/c2cccc(O)c2OC)ccc1O [CU001, (1E,6E)-1-(3-hydroxy-2-methoxyphenyl)-7-(4-hydroxy-3-methoxyphenyl)hepta-1,6-diene-3,5-dione] | strongly inhibited |
| CCn1c2ccccc2c2cc(/C=C/C(=O)CC(=O)/C=C/c3ccc(O)c(OC)c3)ccc21 [CU017, (1E,6E)-1-(9-ethyl-9H-carbazol-3-yl)-7-(4-hydroxy-3-methoxyphenyl)hepta-1,6-diene-3,5-dione] | strongly inhibited |
| COc1cc(/C=C/C(=O)CC(=O)/C=C/c2ccc(O)c(C)c2)ccc1O [CU031, (1E,6E)-1-(4-hydroxy-3-methoxyphenyl)-7-(4-hydroxy-3-methylphenyl)hepta-1,6-diene-3,5-dione] | strongly inhibited |
| COc1ccc(/C=C/C(=O)CC(=O)/C=C/c2cccn2C)cc1O [CU122, (1E,6E)-1-(3-hydroxy-4-methoxyphenyl)-7-(1-methyl-1H-pyrrol-2-yl)hepta-1,6-diene-3,5-dione] | strongly inhibited |
| COc1cc(/C=C/C(=O)CC(=O)/C=C/c2ccc3cc[nH]c3c2)ccc1O [CU190, (1E,6E)-1-(4-hydroxy-3-methoxyphenyl)-7-(1H-indol-6-yl)hepta-1,6-diene-3,5-dione] | strongly inhibited |
| Cn1cc(/C=C/C(=O)CC(=O)/C=C/c2ccc(O)cc2)cn1 [CU198, (1E,6E)-1-(4-hydroxyphenyl)-7-(1-methyl-1H-pyrrazol-4-yl)hepta-1,6-diene-3,5-dione] | strongly inhibited |

Tested on: not given
Test: not given
Settings: not given

| melting point | SMILES |
| --- | --- |
| 190 to 192 °C | O=C(/C=C/c1ccc(O)cc1)CC(=O)/C=C/c1ccc(O)c(F)c1 [CU030, (1E,6E)-1-(3-fluoro-4-hydroxyphenyl)-7-(4-hydroxyphenyl)hepta-1,6-diene-3,5-dione] |
| 131 to 135 °C | COc1cc(O)ccc1/C=C/C(=O)CC(=O)CCc1ccc(O)cc1 [CU517, (E)-1-(4-hydroxy-2-methoxyphenyl)-7-(4-hydroxyphenyl)hept-1-ene-3,5-dione] |
| 44 to 49 °C | CN(C)c1ccc(/C=C/C(=O)CC(=O)CCc2ccc(O)cc2)c2ccccc12 [CU518, (E)-1-(4-dimethylaminonaphthalen-1-yl)-7-(4-hydroxyphenyl)hept-1-ene-3,5-dione] |
| 136 to 142 °C | CN(C)c1ccc(/C=C/C(=O)CC(=O)CCc2ccc(O)cc2)c([N+](=O)[O-])c1 [CU523, (E)-1-(4-dimethylamino-2-nitrophenyl)-7-(4-hydroxyphenyl)hept-1-ene-3,5-dione] |
| 120 to 129 °C | CN(C)c1ccc(/C=C/C(=O)CC(=O)CCc2ccc(O)cc2)c(Cl)c1 [CU524, (E)-1-(2-chloro-4-dimethylaminophenyl)-7-(4-hydroxyphenyl)hept-1-ene-3,5-dione] |
| 74 to 81 °C | CN(C)c1cc(Br)ccc1/C=C/C(=O)CC(=O)/C=C/c1ccc(O)cc1 [CU533, (1E,6E)-1-(4-bromo-2-dimethylaminophenyl)-7-(4-hydroxyphenyl)hepta-1,6-diene-3,5-dione] |
| 68 to 72 °C | CN(C)c1ccc(Br)cc1/C=C/C(=O)CC(=O)/C=C/c1ccc(O)cc1 [CU534, (1E,6E)-1-(5-bromo-2-dimethylaminophenyl)-7-(4-hydroxyphenyl)hepta-1,6-diene-3,5-dione] |
| 68 to 74 °C | CN(C)c1ccc(C(F)(F)F)cc1/C=C/C(=O)CC(=O)/C=C/c1ccc(O)cc1 [CU535, (1E,6E)-1-(2-dimethylamino-5-trifluoromethylphenyl)-7-(4-hydroxyphenyl)hepta-1,6-diene-3,5-dione] |
| 83 to 88 °C | CN(C)c1cc(-c2ccccc2)ccc1/C=C/C(=O)CC(=O)/C=C/c1ccc(O)cc1 [CU536, (1E,6E)-1-(3-dimethylaminobiphenyl-4-yl)-7-(4-hydroxyphenyl)hepta-1,6-diene-3,5-dione] |
| 82 to 88 °C | CN(C)c1ccc(-c2ccccc2)cc1/C=C/C(=O)CC(=O)/C=C/c1ccc(O)cc1 [CU537, (1E,6E)-1-(4-dimethylaminobiphenyl-3-yl)-7-(4-hydroxyphenyl)hepta-1,6-diene-3,5-dione] |
| 237 to 242 °C | COc1cc(/C=C/C(=O)CC(=O)/C=C/c2ccc(O)cc2)c(Br)cc1O [CU539, (1E,6E)-1-(2-bromo-4-hydroxy-5-methoxyphenyl)-7-(4-hydroxyphenyl)hepta-1,6-diene-3,5-dione] |
| 148 to 158 °C | O=C(/C=C/c1cc(O)ccc1-c1ccccc1)CC(=O)CCc1ccc(O)cc1 [CU541, (E)-1-(4-hydroxybiphenyl-2-yl)-7-(4-hydroxyphenyl)hept-1-ene-3,5-dione] |
| 138 to 142 °C | O=C(/C=C/c1cc(O)ccc1-c1cccc2ccccc12)CC(=O)CCc1ccc(O)cc1 [CU542, (E)-1-[5-hydroxy-2-(naphthalen-1-yl)phenyl]-7-(4-hydroxyphenyl)hept-1-ene-3,5-dione] |
| 224 to 229 °C | COc1cc(Br)c(/C=C/C(=O)CC(=O)/C=C/c2ccc(O)cc2)cc1O [CU543, (1E,6E)-1-(2-bromo-5-hydroxy-4-methoxyphenyl)-7-(4-hydroxyphenyl)hepta-1,6-diene-3,5-dione] |
| 45 to 51 °C | O=C(/C=C/c1ccc(O)c(Cl)c1)CC(=O)CCc1ccc(O)cc1 [CU546, (E)-1-(3-chloro-4-hydroxyphenyl)-7-(4-hydroxyphenyl)hept-1-ene-3,5-dione] |
| 161 to 165 °C | O=C(/C=C/c1cc(O)ccc1Br)CC(=O)CCc1ccc(O)cc1 [CU549, (E)-1-(2-bromo-5-hydroxyphenyl)-7-(4-hydroxyphenyl)hept-1-ene-3,5-dione] |

Continued, compound first:

| SMILES | melting point |
| --- | --- |
| COc1cc(/C=C/C(=O)CC(=O)/C=C/c2cccc(O)c2OC)ccc1O [CU001, (1E,6E)-1-(3-hydroxy-2-methoxyphenyl)-7-(4-hydroxy-3-methoxyphenyl)hepta-1,6-diene-3,5-dione] | 152 to 155 °C |
| CCn1c2ccccc2c2cc(/C=C/C(=O)CC(=O)/C=C/c3ccc(O)c(OC)c3)ccc21 [CU017, (1E,6E)-1-(9-ethyl-9H-carbazol-3-yl)-7-(4-hydroxy-3-methoxyphenyl)hepta-1,6-diene-3,5-dione] | 165 to 169 °C |
| COc1cc(/C=C/C(=O)CC(=O)/C=C/c2ccc(O)c(C)c2)ccc1O [CU031, (1E,6E)-1-(4-hydroxy-3-methoxyphenyl)-7-(4-hydroxy-3-methylphenyl)hepta-1,6-diene-3,5-dione] | 173 to 175 °C |
| O=C(/C=C/c1ccc(O)cc1)CC(=O)/C=C/c1ccc(Br)cc1N1CCN(CCO)CC1 [CU502, (1E,6E)-1-{4-bromo-2-[4-(2-hydroxyethyl)piperazin-1-yl]phenyl}-7-(4-hydroxyphenyl)hepta-1,6-diene-3,5-dione] | 127 to 133 °C |
| O=C(/C=C/c1ccc(O)cc1)CC(=O)/C=C/c1ccc2ccccc2c1-c1ccccc1 [CU503, (1E,6E)-1-(4-hydroxyphenyl)-7-(1-phenylnaphthalen-2-yl)hepta-1,6-diene-3,5-dione] | 218 to 222 °C |
| O=C(/C=C/c1ccc(O)cc1)CC(=O)/C=C/c1cccc(-c2ccccc2)c1 [CU504, (1E,6E)-1-(biphenyl-3-yl)-7-(4-hydroxyphenyl)hepta-1,6-diene-3,5-dione] | 176 to 182 °C |
| CCn1c2ccccc2c2cc(CCC(=O)CC(=O)CCc3ccc(OC)c(O)c3)ccc21 [CU508, 1-(9-ethyl-9H-carbazol-3-yl)-7-(3-hydroxy-4-methoxyphenyl)heptane-3,5-dione] | 97 to 100 °C |
| COc1ccc(O)cc1CCC(=O)CC(=O)CCc1cc(O)ccc1OC [CU512, 1,7-bis(5-hydroxy-2-methoxyphenyl)heptane-3,5-dione] | 163 to 169 °C |
| O=C(/C=C/c1ccc(O)cc1)CC(=O)/C=C/c1ccccc1-c1cccnc1 [CU513, (1E,6E)-1-(4-hydroxyphenyl)-7-[2-(pyridin-3-yl)phenyl]hepta-1,6-diene-3,5-dione] | 180 to 189 °C |
| O=C(/C=C/c1ccc(O)cc1)CC(=O)/C=C/c1ccccc1-c1ccncc1 [CU514, (1E,6E)-1-(4-hydroxyphenyl)-7-[2-(pyridin-4-yl)phenyl]hepta-1,6-diene-3,5-dione] | 249 to 256 °C |
| O=C(/C=C/c1ccc(O)cc1)CC(=O)/C=C/c1cc(O)ccc1-c1ccccc1 [CU526, (1E,6E)-1-(4-hydroxybiphenyl-2-yl)-7-(4-hydroxyphenyl)hepta-1,6-diene-3,5-dione] | 179 to 186 °C |
| O=C(/C=C/c1ccc(O)cc1)CC(=O)/C=C/c1cc(OCc2ccccc2)ccc1-c1ccccc1 [CU527, (1E,6E)-1-(4-benzyloxybiphenyl-2-yl)-7-(4-hydroxyphenyl)hepta-1,6-diene-3,5-dione] | 172 to 178 °C |
| O=C(/C=C/c1ccc(O)cc1)CC(=O)/C=C/c1ccccc1-c1cccc2ccccc12 [CU528, (1E,6E)-1-(4-hydroxyphenyl)-7-[2-(naphthalen-1-yl)phenyl]hepta-1,6-diene-3,5-dione] | 95 to 101 °C |
| O=C(/C=C/c1ccc(O)cc1)CC(=O)/C=C/c1ccccc1-c1ccc2ccccc2c1 [CU529, (1E,6E)-1-(4-hydroxyphenyl)-7-[2-(naphthalen-2-yl)phenyl]hepta-1,6-diene-3,5-dione] | 105 to 114 °C |
| O=C(/C=C/c1ccc(O)cc1)CC(=O)/C=C/c1cc(O)ccc1-c1cccc2ccccc12 [CU538, (1E,6E)-1-[5-hydroxy-2-(naphthalen-1-yl)phenyl]-7-(4-hydroxyphenyl)hepta-1,6-diene-3,5-dione] | 215 to 221 °C |
| O=C(/C=C/c1ccc(O)cc1)CC(=O)/C=C/c1cc(O)c(Br)cc1Br [CU544, (1E,6E)-1-(2,4-dibromo-5-hydroxyphenyl)-7-(4-hydroxyphenyl)hepta-1,6-diene-3,5-dione] | 255 to 259 °C |
